Source: US20220030868A1, “FUNGICIDAL HALOMETHYL KETONES AND HYDRATES” (FMC CORPORATION, priority 2018, published 2022)
Marks after values point to notes of the source that are not given here.

What was measured:
Type in all cases: in vivo
Phakopsora pachyrhizi = test: Test A: test suspension sprayed on soybean seedlings one day before inoculation with Phakopsora pachyrhizi spores (Asian soybean rust), visual disease rating; conditions: 100 = 100% disease control, 0 = no control
Method in brief: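 Compound dissolved in acetone (3% of final volume), then suspended at the stated ppm in 50/50 acetone/water with 250 ppm PEG400 surfactant; sprayed to run-off on soybean seedlings, inoculated with P. pachyrhizi spores next day. Held saturated at 22° C for 24 h, then 8 days at 22° C; visual rating as % disease control versus controls.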

[1] = test system: Puccinia recondita f. sp. tritici; test: Test B: test suspension sprayed on wheat seedlings one day before inoculation with Puccinia recondita f. sp. tritici spores (wheat leaf rust), disease rating; conditions: 100 = 100% disease control, 0 = no control
Method in brief: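 Wheat seedlings were sprayed to run-off with compound suspended in 50/50 acetone/water containing 250 ppm PEG400, then inoculated with P. recondita f. sp. tritici spores the next day. Plants were held 24 h in saturated air at 20 °C, then 6 days in a growth chamber at 20 °C. Disease control was rated 0–100% relative to controls, with some entries run at 50 or 10 ppm.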

Uncinula necator = test: Test C: test suspension sprayed on grape seedlings one day before inoculation with Uncinula necator spores (grape powdery mildew), disease rating; conditions: 50 ppm test suspension, 100 = 100% disease control; for pest or weed control at 50 ppm: Erysiphe necator
From the text: General protocol for preparing test suspensions for Tests A-C: the test compounds were first dissolved in acetone in an amount equal to 3% of the final volume and then suspended at the desired concentration (in ppm) in acetone and purified water (50/50 mix by volume) containing 250 ppm of the surfactant PEG400 (polyhydric alcohol esters). The resulting test suspensions were then used in Tests A-C. The test solution was sprayed to the point of run-off on grape seedlings. The following day the seedlings were inoculated with a spore suspension of Uncinula necator (the causal agent of grape powdery mildew) and incubated in a growth chamber at 20° C. for 12 days, after which time disease ratings were made. Results for Tests A-C are given in Table A. In the Table, a rating of 100 indicates 100% disease control and a rating of 0 indicates no disease control (relative to the controls). An asterisk “*” or a double asterisk “**” next to the rating value indicates a 50 ppm or 10 ppm test suspension was used, respectively. A dash (-) indicates the compound was not tested.

[2] = Phakopsora pachyrhizi, 10 ppm test suspension

| Structure (SMILES) | Test A rating (disease control) (Phakopsora pachyrhizi; 10 ppm test suspension) | Test B rating (disease control) ([1]; 10 ppm test suspension) | other results |
| --- | --- | --- | --- |
| CCOC(=O)c1cnn(Cc2ccc(O/C=C(\OCC)C(F)(F)F)c(F)c2)c1 [Compound 262, ethyl 1-[[4-[[(1Z)-2-ethoxy-3,3,3-trifluoro-1-propen-1-yl]oxy]-3-fluorophenyl]methyl]-1H-pyrazole-4-carboxylate] |  |  | pest or weed control at 10 ppm (Phakopsora pachyrhizi; [2]): 100%; pest or weed control at 10 ppm ([1]; 10 ppm test suspension): 0%; pest or weed control at 50 ppm (Uncinula necator): 99% |
| CCOC(=O)c1cnn(Cc2ccc(OCC3(C(F)(F)F)OCCO3)cc2)c1 [Compound 32, ethyl 1-[[4-[[2-(trifluoromethyl)-1,3-dioxolan-2-yl]methoxy]phenyl]methyl]-1H-pyrazole-4-carboxylate] |  |  | pest or weed control at 50 ppm (Phakopsora pachyrhizi; Phakopsora pachyrhizi, 50 ppm test suspension): 100%; pest or weed control at 50 ppm ([1]; 50 ppm test suspension): 68%; pest or weed control at 50 ppm (Uncinula necator): 100% |
| COCCOC(=O)c1cnn(Cc2ccc(OCC3(C(F)(F)F)OCCO3)cc2)c1 [Compound 162, 2-methoxyethyl 1-[[4-[[2-(trifluoromethyl)-1,3-dioxolan-2-yl]methoxy]phenyl]methyl]-1H-pyrazole-4-carboxylate] |  |  | pest or weed control at 10 ppm (Phakopsora pachyrhizi; [2]): 100%; pest or weed control at 10 ppm ([1]; 10 ppm test suspension): 0%; pest or weed control at 50 ppm (Uncinula necator): 100% |
| CCCOC(=O)c1cnn(Cc2ccc(O/C=C(\OCC)C(F)(F)F)cc2)c1 [compound 217] | 100% | 0% | Test C rating (disease control) (Uncinula necator): 100* % |
| CCO/C(=C\Oc1ccc(Cn2cc(C(=O)OC)cn2)cc1)C(F)(F)F [compound 138] | 100% | 0% | Test C rating (disease control) (Uncinula necator): 100* % |
| CC(C)COC(=O)c1cnn(Cc2ccc(OCC3(C(F)(F)F)OCCO3)cc2)c1 [Compound 126, 2-methylpropyl 1-[[4-[[2-(trifluoromethyl)-1,3-dioxolan-2-yl]methoxy]phenyl]methyl]-1H-pyrazole-4-carboxylate] |  |  | pest or weed control at 10 ppm (Phakopsora pachyrhizi; [2]): 100%; pest or weed control at 10 ppm ([1]; 10 ppm test suspension): 0%; pest or weed control at 50 ppm (Uncinula necator): 100% |
| O=C(COC(=O)c1cnn(Cc2ccc(OCC3(C(F)(F)F)OCCO3)cc2)c1)c1ccccc1 [compound 170] | 100% | 0% | Test C rating (disease control) (Uncinula necator): 100* % |
| O=C(OCC(F)(F)F)c1cnn(Cc2ccc(OCC3(C(F)(F)F)OCCO3)cc2)c1 [compound 134] | 89% | 32% |  |
| CCCOC(=O)c1cnn(Cc2cccc(O/C=C(\OCC)C(F)(F)F)c2)c1 [Compound 331, propyl 1-[[3-[[(1Z)-2-ethoxy-3,3,3-trifluoro-1-propen-1-yl]oxy]phenyl]methyl]-1H-pyrazole-4-carboxylate] |  |  | pest or weed control at 10 ppm (Phakopsora pachyrhizi; [2]): 100%; pest or weed control at 10 ppm ([1]; 10 ppm test suspension): 0% |
| N#CCNC(=O)c1cnn(Cc2ccc(OCC3(C(F)(F)F)OCCO3)cc2)c1 [compound 164] | 31% | 0% |  |
| CCCCCCOC(=O)c1cnn(Cc2ccc(OCC(O)(O)C(F)(F)F)cc2)c1 [Compound 48] |  |  | Test A rating (disease control) (Phakopsora pachyrhizi; 50 ppm test suspension): 100%; Test B rating (disease control) ([1]; 50 ppm test suspension): 91% |
| CCOC(=O)c1cnn(CCCc2ccc(O/C=C(\OCC)C(F)(F)F)cc2)c1 [compound 294] | 100% | 0% |  |
| CCO/C(=C\Oc1ccc(Cn2cc(C(=O)NCC(F)(F)F)cn2)cc1)C(F)(F)F [compound 106] | 0% | 0% |  |
| CCO/C(=C\Oc1ccc(-c2noc(C(F)(F)F)n2)cc1)C(F)(F)F [compound 143] | 0% | 0% |  |
| C=C(C)COC(=O)c1cnn(Cc2ccc(OCC(O)(O)C(F)(F)F)cc2)c1 [Compound 40] | 91% | 68% |  |
| C#CCOC(=O)c1cnn(Cc2ccc(OCC3(C(F)(F)F)OCCO3)cc2)c1 [compound 15] | 100% | 0% |  |
| CCCCOC(=O)c1cnn(Cc2cccc(O/C=C(\OCC)C(F)(F)F)c2)c1 [compound 339] | 100% | 0% |  |
| CCOC(=O)c1cn(Cc2ccc(O/C=C(\OCC)C(F)(F)F)cc2)cn1 [compound 153] | 100% | 0% |  |
| CCCOC(=O)c1ccn(Cc2ccc(O/C=C(\OCC)C(F)(F)F)cc2)n1 [compound 292] | 100% | 0% |  |
| CCO/C(=C\Oc1ccc(Cn2cc(C(=O)NCC#N)cn2)cc1)C(F)(F)F [compound 107] | 0% | 0% |  |
| CCO/C(=C\Oc1ccc(Cn2cc(C(=O)OC(C)(C)C)cn2)cc1)C(F)(F)F [compound 89] | 0% | 0% |  |
| CC(=O)c1ccc(OCC(O)(O)C(F)(F)F)cc1 [Compound 80] |  |  | Test A rating (disease control) (Phakopsora pachyrhizi; 50 ppm test suspension): 99%; Test B rating (disease control) ([1]; 50 ppm test suspension): 100% |

| Structure (SMILES) | Test A rating (disease control) (Phakopsora pachyrhizi; 10 ppm test suspension) | Test B rating (disease control) ([1]; 10 ppm test suspension) | other results |
| --- | --- | --- | --- |
| CCO/C(=C\Oc1ccc(Cn2ccc(C(=O)OCCOC)n2)cc1)C(F)(F)F [compound 360] | 100% | 0% |  |
| CCO/C(=C\Oc1ccc(Cn2ncnc2C#N)cc1)C(F)(F)F [Compound 81] | 0% | 0% |  |
| O=C(NCC(F)(F)F)c1cnc(Cc2ccc(OCC(O)(O)C(F)(F)F)cc2)o1 [Compound 274] | 48% | 0% |  |
| CCOC(=O)c1cnn(Cc2ccc(SCC3(C(F)(F)F)OCCO3)cc2)c1 [compound 115] |  |  | Test A rating (disease control) (Phakopsora pachyrhizi; 250 ppm test suspension): 0%; Test B rating (disease control) ([1]; 250 ppm test suspension): 0% |
| CCOC(=O)c1cnn(-c2ccc(O/C=C(\OCC)C(F)(F)F)cc2)c1 [compound 316] |  |  | Test A rating (disease control) (Phakopsora pachyrhizi; 50 ppm test suspension): 100%; Test B rating (disease control) ([1]; 50 ppm test suspension): 9% |
| CCO/C(=C\Oc1ccc([N+](=O)[O-])cc1)C(F)(F)F [compound 279] |  |  | Test A rating (disease control) (Phakopsora pachyrhizi; 50 ppm test suspension): 0%; Test B rating (disease control) ([1]; 50 ppm test suspension): 0% |
| CCOC(=O)c1cnn(Cc2ccc(OCC(O)(O)C(F)(F)F)c(F)c2)c1 [compound 264] |  |  | pest or weed control at 10 ppm (Phakopsora pachyrhizi; [2]): 99%; pest or weed control at 10 ppm ([1]; 10 ppm test suspension): 80% |
| O=C(NCC(F)(F)F)c1cnn(Cc2ccc(OCC3(C(F)(F)F)OCCO3)cc2)c1 [compound 197] | 0% | 0% |  |
| O=C(OCc1ccc(F)c(F)c1)c1cnn(Cc2ccc(OCC(O)(O)C(F)(F)F)cc2)c1 [Compound 50] | 54% | 91% |  |
| CCO/C(=C\Oc1ccc(Cn2cc(C(=O)OCC(=O)c3ccccc3)cn2)cc1)C(F)(F)F [compound 244] | 100% | 0% |  |
| CCC#CCOC(=O)c1ccn(Cc2ccc(O/C=C(\OCC)C(F)(F)F)cc2)n1 [compound 326] | 100% | 0% |  |
| CCO/C(=C\Oc1ccc(Cn2ccc(C(F)(F)F)n2)cc1)C(F)(F)F [compound 181] | 0% | 0% |  |
| CCCOC(=O)c1ccc(O/C=C(\OCC)C(F)(F)F)cc1 [compound 94] | 0% | 0% |  |
| CCOC(=O)c1cnn(Cc2ccc(OCC3(C(F)(F)F)OC(=O)[C@@H](C)O3)cc2)c1 (stereo partly drawn) [Compound 187] | 93% | 74% |  |
| CC(C)CS(=O)(=O)NCc1ccc(OCC2(C(F)(F)F)OCCO2)cc1 [compound 76] | 0% | 0% |  |
| CCOC(=O)c1cnn(Cc2ccc(OC(F)(F)C(O)(O)C(F)(F)F)cc2)c1 [Compound 227] | 99% | 55% |  |
| O=C(NCC1CC1)c1cnc(Cc2ccc(OCC3(C(F)(F)F)OCCO3)cc2)s1 [Compound 259] | 25% | 0% |  |
| FC(F)(F)C1(COc2ccc(CNC(=S)NC3CCCCC3)cc2)OCCO1 [compound 77] | 0% | 0% |  |
| O=C(NCC1CC1)c1cnc(Cc2ccc(OCC3(C(F)(F)F)OCCO3)cc2)o1 [Compound 248] | 71% | 0% |  |
| N#Cc1cnn(Cc2ccc(OCC(O)(O)C(F)(F)F)cc2)c1 [Compound 206] |  |  | Test A rating (disease control) (Phakopsora pachyrhizi; 50 ppm test suspension): 100%; Test B rating (disease control) ([1]; 50 ppm test suspension): 98% |
| C[Si](C)(C)CCOc1nccc(Cc2ccc(OCC3(C(F)(F)F)OCCO3)cc2)n1 [compound 314] |  |  | Test A rating (disease control) (Phakopsora pachyrhizi; 50 ppm test suspension): 0%; Test B rating (disease control) ([1]; 50 ppm test suspension): 0% |
